Source: paper PMC2362650, “Phase I and pharmacokinetic study of the topoisomerase II catalytic inhibitor fostriecin” (British Journal of Cancer, 1999)
Values joined by “and” are separate entries in the source; they are usually repeats but may differ in a detail not shown here. Equal values may be shown once. Read-outs that look alike come from different tables or passages of the source.

How the values were obtained:
[1] = Plasma and urine pharmacokinetics (HPLC-UV) in patients after 60-min IV infusion; assay type: in vivo, human; conditions: for Cmax / AUC / MRT / half-life: human, plasma, intravenous; for Cmax: observed value
Excerpt: Fostriecin (CI-920) is a topoisomerase (topo) II catalytic activity inhibitor (Boritzki et al, 1988) (Figure 1). This novel class of topo II-targeting drugs is considered of potential value for treatment of patients with tumours resistant to classic topo II poisons, including anthracyclines and podophyllotoxins (Cummings and Smyth, 1993). The nuclear enzyme topo II is essential for the regulation of DNA conformation (reviewed in Osheroff et al, 1991). Central in its action is the formation of a complex with DNA. Stabilization of this complex by topo II poisons induces DNA damage and cell death (Froelich-Ammon and Osheroff, 1995). Decreased complex formation due to decreased topo II levels is considered to be an important mechanism of tumour-resistance to topo II poisons (Beck and Danks, 1991). The topo II catalytic inhibitor fostriecin is expected to have increased activity against tumour cells with low topo II levels and this was confirmed in in vitro studies (De Jong et al, 1991). […] Because of increased toxi- city of fostriecin in dogs compared to mice, a dose below one-third of the one-tenth mouse equivalent LD10, 2 mg m-2 day-1, was chosen as starting dose in humans (Clinical Brochure Fostriecin, 1991). […] We also performed an analysis of the human pharmacokinetics of fostriecin and ex vivo experiments to investigate if the plasma drug concentrations achieved were sufficient to inhibit a tenipo- side-resistant tumour cell line. The maximum tolerated dose (MTD) of fostriecin could not be established because drug supply was stopped prematurely. However, results of this study may provide a basis for continued clinical development of this agent. PATIENTS AND METHODS Patient selection, drug administration and evaluation Patient eligibility criteria were: histologically confirmed diagnosis of a solid tumour, no longer amenable to established forms of treatment; age 18-75 years; Eastern Cooperative Oncology Group (ECOG) performance status 2; life expectancy 12 weeks; no Phase I and pharmacokinetic study of the topoisomerase II catalytic inhibitor fostriecin RS de Jong1, NH Mulder1, DRA Uges2, DTh Sleijfer1, FJP Hoppener4, HJM Groen3, PHB Willemse1, WTA van der Graaf1 and EGE de Vries1 Departments of 1Medical Oncology, 2Pharmacy and Toxicology, and 3Pulmonary Diseases, University Hospital Groningen, The Netherlands; 4EORTC New Drug Development Office, Amsterdam, The Netherlands Summary We conducted a phase I and pharmacokinetic study of the topoisomerase II catalytic inhibitor fostriecin. Fostriecin was administered intravenously over 60 min on days 1-5 at 4-week intervals. Dose was escalated from 2 mg m-2 day-1 to 20 mg m-2 day-1 in 20 patients. Drug pharmacokinetics was analysed with high performance liquid chromatography with UV-detection. Plasma collected during drug administration was tested in vitro for growth inhibition of a teniposide-resistant small-cell lung cancer (SCLC) cell line. The predominant toxicities were elevated liver transaminases (maximum common toxicity criteria (CTC) grade 4) and serum creatinine (maximum CTC grade 2). […] Duration of elevated alanine-amino transferase (ALT) was dose-limiting in one patient at 20 mg m-2. Other frequent toxicities were grade 1-2 nausea/vomiting, fever and mild fatigue. […] A metabolite, most probably dephosphorylated fostriecin, was detected in plasma and urine. […] However, further escalation seems possible and is warranted to achieve potentially effective drug levels. Fostriecin has a short plasma half-life and longer duration of infusion should be considered. […]

GLC4/VM20x = system: GLC4/VM20x; parameters: method as in Withoff et al, 1996; conditions: ref Withoff et al, 1996; cited from earlier work
[2] = patient no. 1, 2 mg m-2, day 1 course 1, one-compartment model
[3] = patient no. 3, 2 mg m-2, day 1 course 1, one-compartment model
[4] = patient no. 4, 2 mg m-2, day 1 course 1, one-compartment model
[5] = patient no. 5, 4 mg m-2, day 1 course 1, one-compartment model
[6] = patient no. 6, 4 mg m-2, day 1 course 1, one-compartment model
[7] = patient no. 7, 4 mg m-2, day 1 course 1, two-compartment model
[8] = patient no. 11, 6.6 mg m-2, day 1 course 1, two-compartment model
[9] = patient no. 12, 6.6 mg m-2, day 1 course 1, two-compartment model
[10] = patient no. 13, 10 mg m-2, day 1 course 1, two-compartment model
[11] = patient no. 15, 10 mg m-2, day 1 course 1, two-compartment model
[12] = patient no. 16, 12.2 mg m-2, day 1 course 1, two-compartment model
[13] = patient no. 18, 12.2 mg m-2, day 1 course 1, two-compartment model
[14] = patient no. 19, 20 mg m-2, sampling on day 1 of course 2, two-compartment model
[15] = patient no. 20, 20 mg m-2, day 1 course 1, two-compartment model

**Q.** For C[C@@](O)(/C=C/[C@H]1CC=CC(=O)O1)[C@@H](C[C@@H](O)\C=C/C=C\C=C\CO)OP(=O)(O)O [fostriecin], which Cmax ([1]; 12.2 mg, patient no. 18, 12.2 mg m-2, day 1 course 1) is on record?
**A.** 2790 ng/mL

**Q.** And the AUC ([1]; 12.2 mg, patient no. 18, 12.2 mg m-2, day 1 course 1, two-compartment model)?
**A.** 5320 ng·h/mL

**Q.** And the MRT ([1]; 12.2 mg, patient no. 18, 12.2 mg m-2, day 1 course 1, two-compartment model, read-out: MRT)?
**A.** 217 min

**Q.** What about the half-life ([1]; 12.2 mg, patient no. 18, 12.2 mg m-2, day 1 course 1, two-compartment model, read-out: t1/2 (initial) (converted)) of the same molecule?
**A.** 27.6 min

**Q.** What about the half-life ([1]; 12.2 mg, patient no. 18, 12.2 mg m-2, day 1 course 1, two-compartment model, read-out: t1/2 (terminal) (converted)) of the same molecule?
**A.** 306 min

**Q.** And the Cmax ([1]; 20 mg, patient no. 19, 20 mg m-2, sampling on day 1 of course 2)?
**A.** 3850 ng/mL

**Q.** And the AUC ([1]; 20 mg, patient no. 19, 20 mg m-2, sampling on day 1 of course 2, two-compartment model)?
**A.** 4450 ng·h/mL

**Q.** What about the MRT ([1]; 20 mg, patient no. 19, 20 mg m-2, sampling on day 1 of course 2, two-compartment model, read-out: MRT) of the same molecule?
**A.** 22.8 min

**Q.** And the half-life ([1]; 20 mg, patient no. 19, 20 mg m-2, sampling on day 1 of course 2, two-compartment model, read-out: t1/2 (initial) (converted))?
**A.** 1.8 min

**Q.** What about the half-life ([1]; 20 mg, patient no. 19, 20 mg m-2, sampling on day 1 of course 2, two-compartment model, read-out: t1/2 (terminal) (converted)) of the same molecule?
**A.** 32.4 min

**Q.** And the Cmax ([1]; 20 mg, patient no. 20, 20 mg m-2, day 1 course 1)?
**A.** 6350 ng/mL

**Q.** And the AUC ([1]; 20 mg, patient no. 20, 20 mg m-2, day 1 course 1, two-compartment model)?
**A.** 9960 ng·h/mL

**Q.** And the MRT ([1]; 20 mg, patient no. 20, 20 mg m-2, day 1 course 1, two-compartment model, read-out: MRT)?
**A.** 49.8 min

**Q.** What about the half-life ([1]; 20 mg, patient no. 20, 20 mg m-2, day 1 course 1, two-compartment model, read-out: t1/2 (initial) (converted)) of the same molecule?
**A.** 0.6 min

**Q.** And the half-life ([1]; 20 mg, patient no. 20, 20 mg m-2, day 1 course 1, two-compartment model, read-out: t1/2 (terminal) (converted))?
**A.** 45.6 min

**Q.** And the half-life ([1]; two-compartment model, 95% CI 0-0.76 h, read-out: mean plasma half-life (initial) (converted))?
**A.** 21.6 min

**Q.** What about the MRT ([1]; two-compartment model, 95% CI 0.41-1.97 h, read-out: mean residence time (MRT)) of the same molecule?
**A.** 71.4 min

**Q.** What about the half-life ([1]; two-compartment model, 95% CI 0.41-2.61 h, read-out: mean plasma half-life (terminal) (converted)) of the same molecule?
**A.** 90.6 min

**Q.** What about the “renal excretion as share of drug elimination” value ([1]; mean, patient nos 12-20, 95% CI 10-17.6%) of the same molecule?
**A.** 14.6% and 15%

**Q.** What about the Cl [1, 2] of the same molecule?
**A.** 5.14 l h-1 m-2

**Q.** What about the Vd [1, 2] of the same molecule?
**A.** 4.44 l m-2

**Q.** What about the Cl [1, 3] of the same molecule?
**A.** 2.40 l h-1 m-2

**Q.** And the Vd [1, 3]?
**A.** 1.86 l m-2

**Q.** And the Cl [1, 4]?
**A.** 4.11 l h-1 m-2

**Q.** And the Vd [1, 4]?
**A.** 2.10 l m-2

**Q.** What about the Cl [1, 5] of the same molecule?
**A.** 2.81 l h-1 m-2

**Q.** And the Vd [1, 5]?
**A.** 2.03 l m-2

**Q.** And the Cl [1, 6]?
**A.** 3.05 l h-1 m-2

**Q.** And the Vd [1, 6]?
**A.** 2.03 l m-2

**Q.** And the Cl [1, 7]?
**A.** 2.31 l h-1 m-2

**Q.** What about the Vd [1, 7] of the same molecule?
**A.** 6.76 l m-2

**Q.** And the Cl [1, 8]?
**A.** 4.06 l h-1 m-2

**Q.** And the Vd [1, 8]?
**A.** 2.75 l m-2

**Q.** And the Cl [1, 9]?
**A.** 2.63 l h-1 m-2

**Q.** And the Vd [1, 9]?
**A.** 4.64 l m-2

**Q.** And the Cl [1, 10]?
**A.** 2.97 l h-1 m-2

**Q.** And the Vd [1, 10]?
**A.** 3.98 l m-2

**Q.** What about the Cl [1, 11] of the same molecule?
**A.** 2.66 l h-1 m-2

**Q.** And the Vd [1, 11]?
**A.** 5.34 l m-2

**Q.** And the Cl [1, 12]?
**A.** 2.84 l h-1 m-2

**Q.** And the Vd [1, 12]?
**A.** 4.80 l m-2

**Q.** What about the Cl [1, 13] of the same molecule?
**A.** 2.32 l h-1 m-2

**Q.** What about the Vd [1, 13] of the same molecule?
**A.** 17.09 l m-2

**Q.** And the Cl [1, 14]?
**A.** 4.52 l h-1 m-2

**Q.** What about the Vd [1, 14] of the same molecule?
**A.** 3.39 l m-2

**Q.** And the Cl [1, 15]?
**A.** 1.83 l h-1 m-2

**Q.** What about the Vd [1, 15] of the same molecule?
**A.** 2.01 l m-2

**Q.** What about the “mean volume of distribution (Vd)” value ([1]; two-compartment model, 95% CI 2.16-9.11) of the same molecule?
**A.** 5.64 l m-2

**Q.** What about the “mean Cl (apparent total body clearance)” value ([1]; two-compartment model, 95% CI 2.24-3.57) of the same molecule?
**A.** 2.90 l h-1 m-2

**Q.** What about the “mean Cl (apparent total body clearance)” value ([1]; unit conversion of 2.90 l h-1 m-2) of the same molecule?
**A.** 48.3 ml min-1 m-2

**Q.** And the “sensitivity of GLC4/VM20x relative to GLC4” value (GLC4/VM20x)?
**A.** 1.7 times
